Laboratory results reported in patent publication US5149701A, “C-31 methylated FR-900520 cyclic hemiketal immunosuppressant agents” (Merck & Co., Inc., priority 1991, dated 1992).
Where “and” joins values, the source holds several entries; their conditions need not be identical. Equal entries are not always repeated. Entries after “also recorded” stand apart in the source; their conditions may differ. Where two headings read alike, the source gives them in different places.

Assays:
[1] = molecular target: T1, 31-O-desmethylimmunomycin O-methyltransferase (DIMT) (Streptomyces hygroscopicus, UniProt Q9KID5); assay: S-adenosyl-L-methionine:31-O-desmethylimmunomycin O-methyltransferase (DIMT) assay; type: biochemical, Streptomyces hygroscopicus var. ascomyceticus; conditions: for inhibition of DIMT activity: result in words
T1 construct: about 32 kDa; monomer by gel filtration
T1 sequence (Q9KID5 1-260): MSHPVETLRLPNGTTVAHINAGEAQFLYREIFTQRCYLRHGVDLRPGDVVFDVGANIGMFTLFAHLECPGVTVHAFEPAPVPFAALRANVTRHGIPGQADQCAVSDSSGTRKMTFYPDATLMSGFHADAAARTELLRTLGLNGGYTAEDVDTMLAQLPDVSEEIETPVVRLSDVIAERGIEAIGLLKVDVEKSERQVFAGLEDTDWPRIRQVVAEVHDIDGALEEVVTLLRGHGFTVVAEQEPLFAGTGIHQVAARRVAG
Method: The assay was carried out in 1 ml. mixture containing 0.025 mM 31-desmethylimmunomycin, 1 mM MgSO4 and different quantities of the enzyme source in 50 mM phosphate buffer, pH 7.5. Reaction was initiated by the addition of 1 nmole of ^14 C-SAM (S-adenosyl-L-[methyl-^14 C] methionine with the specific activity of 46 mCi/mmole. Incubation of the complete mixture was carried out at 34° C. for 20 minutes and the reaction was terminated by the addition of ethyl acetate. Product of the reaction was extracted with 2 ml of ethyl acetate and 1 ml of the extract was used for TLC and HPLC analysis. For the analysis of the radioactive reaction product (immunomycin), the ethyl acetate extract was spiked with the standard immunomycin and subjected to the TLC with a plate having plastic support. The plastic sheet was developed in chloroform:methanol (9:1) and area showing standard immunomycin under UV-light was cut and the radioactivity in the cut-strip was measured. The amount of the product formed was calculated from the measured radioactivity. For the HPLC analysis of the product of the enzyme reaction, several enzymatic reaction mixtures were pooled and the extract was subjected to the TLC analysis as above. The area on the silica gel plate showing the band having an Rf value identical with the standard immunomycin was scraped and eluted with ethyl acetate. The ethyl acetate extract was washed with water, dried under nitrogen and the residue was subjected to the HPLC analysis on Partisil 5-ODS-3 column with acetonitrile:water:phosphoric acid (65:35:0.1) as the eluting solvent. One milliliter fractions were collected and a portion of each fraction was examined for the radioactivity.
Examination of the optimal temperature, pH and metal requirement of the DIMT activity was carried out on the enzyme preparation obtained from DEAE-Sepharose column. For kinetic analysis, a preparation which had been purified through a second MonoQ column chromatography was utilized.

[2] = system: mouse T lymphocytes stimulated with ionomycin plus PMA; assay: T-cell proliferation assay (ionomycin plus PMA induced T-cell stimulation); type: cell-based
Method: The principle of this assay, as described in J. Immunology, Vol. 144, pp. 251-258 (1990) by F. Dumont et al, is to measure the proliferation of mouse T lymphocytes stimulated with the combination of ionomycin plus PMA. A positive sample e.g. FK-506, in this assay will inhibit T-cell proliferation, as indicated by reduced tritiated thymidine uptake.
Purified Compound I, as prepared by HPLC above, was dissolved in absolute ethanol at 1 mg/ml.
Spleens from C57B1/6 mice were taken under sterile conditions and gently dissociated in ice-cold RPMI 1640 culture medium (GIBCO, Grand Island, N.Y.) supplemented with 10% heat-inactivated fetal calf serum (GIBCO). Cells were pelleted by centrifugation at 1500 rpm for 8 minutes. Contaminating red cells were removed by treating the pellet with ammonium chloride lysing buffer (GIBCO) for 2 minutes at 4° C. Cold medium was added and cells were again centrifuged at 1500 rpm for 8 minutes. T lymphocytes were then isolated by separation of the cell suspension on nylon wool columns as follows: Nylon wool columns were prepared by packing approximately 4 grams of washed and dried nylon wool into 20 ml plastic syringes. The columns were sterilized by autoclaving at 250° F. for 30 minutes. Nylon wool columns were wetted with warm (37° C.) culture medium and rinsed with the same medium. Washed spleen cells resuspended in warm medium were slowly applied to the nylon wool. The columns were then incubated in an upright position at 37° C. for 1 hour. Non-adherent T lymphocytes were eluted from the columns with warm culture medium and the cell suspensions were spun as above.
Purified T lymphocytes were resuspended at 2.5×10^5 cells/ml in complete culture medium composed of RPMI 1640 medium with 10% heat-inactivated fetal calf serum, […], 1 mM sodium pyruvate, 2×10^-5 M 2-mercaptoethanol and 50 μg/ml gentamycin. Ionomycin was added at 250 ng/ml and PMA at 10 ng/ml. The cell suspension was immediately distributed into 96 well flat-bottom microculture plates (Costar) at 200 μl/well. The control, being the medium without test drug, and various below-indicated dilutions of the sample (above-describedpurified Compound I) to be tested were then added in triplicate wells at 20 μl/well. FR-900506 was used as a standard. The culture plates were then incubated at 37° C. in a humidified atmosphere of 5% CO2 -95% air for 44 hours. The proliferation of T lymphocytes was assessed by measurement of tritiated thymidine incorporation. After 44 hours of culturing, the cells were pulse-labelled with 2 μCi/well of tritiated thymidine (NEN, Cambridge, Mass.). After another 4 hours of incubation, cultures were harvested on glass fiber filters using a multiple sample harvester. Radioactivity of filter discs corresponding to individual wells was measured by standard liquid scintillation counting methods (Betacounter). Mean counts per minute of replicate wells were calculated and the results expressed as percent inhibition of tritiated thymidine uptake (proliferation) as follows: [formula]
1. Mouse T cell cultures were pulsed with ^3 H-thymidine for 4 hours prior to harvesting at 48 hours.

[3] = reputed, EPO Publication No. 0184162; cited from earlier work
[4] = Physical characteristics of Compound I; type: physicochemical; conditions: methanol
[5] = Mus musculus, T-lymphocyte, Example 3, HPLC purified samples, same set of experiments, read-out: IC50, biological activity

Nc1ncnc2c1ncn2[C@@H]1O[C@H](C[C@@H](N)CC[C@H](N)C(=O)O)[C@@H](O)[C@H]1O [sinefungin]
inhibition of DIMT activity [1]: major inhibition

O=C(O)CN(CCN(CC(=O)O)CC(=O)O)CC(=O)O [EDTA]
inhibition of DIMT activity [1]: completely inhibited; also recorded: major inhibition

C=CC[C@@H]1/C=C(\C)C[C@H](C)C[C@H](OC)[C@H]2O[C@@](O)(C(=O)C(=O)N3CCCC[C@H]3C(=O)O[C@H](/C(C)=C/[C@@H]3CC[C@@H](O)[C@H](OC)C3)[C@H](C)[C@@H](O)CC1=O)[C@H](C)C[C@@H]2OC [FR-900506, reference compound]
inhibition at 0.01 µg/mL ([2]; Mus musculus, T-lymphocyte, read-out: inhibition of T-cell proliferation by the standard): 99% | times more effective than cyclosporin [3]: 100 times

CC[C@@H]1/C=C(\C)C[C@H](C)C[C@H](OC)[C@H]2O[C@@](O)(C(=O)C(=O)N3CCCC[C@H]3C(=O)O[C@H](/C(C)=C/[C@@H]3CC[C@@H](O)[C@H](O)C3)[C@H](C)[C@@H](O)CC1=O)[C@H](C)C[C@@H]2OC [31-O-desmethylimmunomycin]
apparent Vmax of DIMT ([1]; 31-O-desmethylimmunomycin variable substrate, 40 uM SAM, Lineweaver-Burk): 45.5 nmol/h/mg

CC[C@@H]1C=C2COC1(O)C[C@H](O)[C@@H](C)[C@@H](/C(C)=C/[C@@H]1CC[C@@H](O)[C@H](O)C1)OC(=O)[C@@H]1CCCCN1C(=O)C(=O)[C@]1(O)O[C@H]([C@@H](OC)C[C@@H](C)C2)[C@@H](OC)C[C@H]1C [Compound I]
Solubility [4]: Solubility in methanol | effect of IL-2 on the inhibition of T-cell proliferation ([2]; 50 units/ml recombinant IL-2 added at the initiation of culture): reversed | inhibition at 0.0025 µM ([2]; Mus musculus, T-lymphocyte, 2.5 nM, splenic T-cells, ionomycin + PMA, 48 hours, read-out: Percent of Inhibition of tritiated thymidine uptake (proliferation)): 0% | inhibition at 0.0049 µM ([2]; Mus musculus, T-lymphocyte, 4.9 nM, splenic T-cells, ionomycin + PMA, 48 hours, read-out: Percent of Inhibition of tritiated thymidine uptake (proliferation)): 0% | inhibition at 0.0099 µM ([2]; Mus musculus, T-lymphocyte, 9.9 nM, splenic T-cells, ionomycin + PMA, 48 hours, read-out: Percent of Inhibition of tritiated thymidine uptake (proliferation)): 39% | inhibition at 0.0197 µM ([2]; Mus musculus, T-lymphocyte, 19.7 nM, splenic T-cells, ionomycin + PMA, 48 hours, read-out: Percent of Inhibition of tritiated thymidine uptake (proliferation)): 65% | inhibition at 0.0394 µM ([2]; Mus musculus, T-lymphocyte, 39.4 nM, splenic T-cells, ionomycin + PMA, 48 hours, read-out: Percent of Inhibition of tritiated thymidine uptake (proliferation)): 89% | inhibition at 0.0788 µM ([2]; Mus musculus, T-lymphocyte, 78.8 nM, splenic T-cells, ionomycin + PMA, 48 hours, read-out: Percent of Inhibition of tritiated thymidine uptake (proliferation)): 95% | inhibition at 0.1576 µM ([2]; Mus musculus, T-lymphocyte, 157.6 nM, splenic T-cells, ionomycin + PMA, 48 hours, read-out: Percent of Inhibition of tritiated thymidine uptake (proliferation)): 98% | inhibition at 0.3152 µM ([2]; Mus musculus, T-lymphocyte, 315.2 nM, splenic T-cells, ionomycin + PMA, 48 hours, read-out: Percent of Inhibition of tritiated thymidine uptake (proliferation)): 98% | IC50 [2, 5]: ~11 nM | IC50 ([2]; Mus musculus, T-lymphocyte, Example 4, table notes, read-out: IC50): 0.0115 µg/mL and 14.5 nM | IC50 ([2]; Mus musculus, T-lymphocyte, generally in the range, read-out: IC50, general range): 10 to 18 nM

Nc1ncnc2c1ncn2[C@@H]1O[C@H](CSCC[C@H](N)C(=O)O)[C@@H](O)[C@H]1O [S-adenosyl-homocysteine (SAH), S-adenosyl-homocysteine]
inhibition of DIMT activity [1]: major inhibition

CC[C@@H]1/C=C(\C)C[C@H](C)C[C@H](OC)[C@H]2O[C@@](O)(C(=O)C(=O)N3CCCC[C@H]3C(=O)O[C@H](/C(C)=C/[C@@H]3CC[C@@H](O)[C@H](OC)C3)[C@H](C)[C@@H](O)CC1=O)[C@H](C)C[C@@H]2OC [FR-900520, 17-Ethyl-1,14-dihydroxy-12-[2-(4-hydroxy-3-methoxycyclohexyl)-1-methylvinyl]-23-25-dimethoxy-13,19,21,27-tetramethyl-11,28-dioxa-4-azatricyclo [22.3.1.0^4,9]octacos-18-ene-2,3,10,16-tetraone]
IC50 [2, 5]: ~1 nM

CC[C@@H]1C=C2COC1(O)C[C@H](O)[C@@H](C)[C@@H](/C(C)=C/[C@@H]1CC[C@@H](O)[C@H](OC)C1)OC(=O)[C@@H]1CCCCN1C(=O)C(=O)[C@]1(O)O[C@H]([C@@H](OC)C[C@@H](C)C2)[C@@H](OC)C[C@H]1C [Compound II]
IC50 [2, 5]: ~6 nM | activity in the T-cell proliferation assay ([2]; result in words): positive inhibition of T-cell activation; also recorded: positive results

N.N.O=S(=O)(O)O [ammonium sulfate]
inhibition of DIMT activity [1]: inhibited
